The values that follow come from ChEMBL document CHEMBL3351419, “Orally bioavailable 6-chloro-7-methoxy-4(1H)-quinolones efficacious against multiple stages of Plasmodium” (J Med Chem, 2014).

pEC50: −log10 of the molar value.

Data set [1] in a line: Resistance index, ratio of EC50 for multi-drug-resistant Plasmodium falciparum TM90-C2B infected in human type A+ erythrocytes to EC50 for multi-drug-resistant Plasmodium falciparum W2 infected in human type A+ erythrocytes. The data set is classed as functional.
Data set [2] concerns J774. The experiment in a line: Cytotoxicity against mouse J774 cells after 72 hrs by CellTiter 96 assay. The data set is classed as cell-based. Particulars: J774, 72 h.
The test system of data set [3] is Plasmodium falciparum. Briefly: Antimalarial activity against multi-drug-resistant Plasmodium falciparum TM90-C2B infected in human type A+ erythrocytes assessed as growth inhibition after 72 hrs by SYBR Green I assay. The format is functional, organism-based.
The nature of data set [4]: Cytotoxicity index, ratio of EC50 for mouse J774 cells to EC50 for multi-drug-resistant Plasmodium falciparum TM90-C2B infected in human type A+ erythrocytes. The format is toxicity, cell-based. The note with it: read-out: Ratio EC50.
In data set [5] the test system is Plasmodium falciparum. The experiment in a line: Antimalarial activity against multi-drug-resistant Plasmodium falciparum W2 infected in human type A+ erythrocytes assessed as growth inhibition after 72 hrs by SYBR Green I assay. The data set is classed as functional, organism-based. Particulars: W2, 72 h.
For data set [6] the following is noted: octanol/water, pH 7.4.

What is called pEC50 is the negative decadic logarithm of the EC50, by convention in mol/L. As for `COc1cc2[nH]c(C)c(-c3ccc(C)cc3)c(=O)c2cc1Cl`, the “Ratio EC50” value in data set [1] is reported as 0.3. The pEC50 was below 4.50 in data set [2], 8.13 in data set [3] and 7.61 in data set [5]. Moreover, the selectivity ratio in data set [4] was above 4350.

Regarding `COc1cc2[nH]c(C)c(-c3ccc(C)cc3C)c(=O)c2cc1Cl`, the “Ratio EC50” value in data set [1] was 0.35. Further, the pEC50 in data set [2] is 5.43; in data set [3], 8.50; in data set [5], 8.04. Moreover, the selectivity ratio in data set [4] is 1180.

As to `COc1cc2[nH]c(C)c(-c3c(C)cc(C)cc3C)c(=O)c2cc1Cl`, the “Ratio EC50” value in data set [1] came out at 1.01. Besides, the pEC50 in data set [2] is 5.52; in data set [3], 7.33; in data set [5], 7.34. The selectivity ratio in data set [4] came to 64.6.

With `CCc1ccccc1-c1c(C)[nH]c2cc(OC)c(Cl)cc2c1=O`, the “Ratio EC50” value in data set [1] stood at 2.59. The values for the pEC50 in data set [2], in data set [3] and in data set [5] were 4.79, 6.80 and 7.21, respectively. The selectivity ratio in data set [4] is 102.

For `COc1cc2[nH]c(C)c(-c3ccc(C(C)C)cc3)c(=O)c2cc1Cl`, the “Ratio EC50” value in data set [1] was 0.4. Further, the pEC50 in data set [2] is below 4.53; in data set [3], 8.57; in data set [5], 8.18. The selectivity ratio in data set [4] was above 11000.

Regarding `COc1cc2[nH]c(C)c(-c3ccc(C(C)(C)C)cc3)c(=O)c2cc1Cl`, the results for the pEC50 in data set [2], in data set [3] and in data set [5] were below 4.55, 6.94 and 7.18, respectively.

Consider `COc1cc2[nH]c(C)c(-c3ccccn3)c(=O)c2cc1Cl`, for which the “Ratio EC50” value in data set [1] came to 0.23. The pEC50 in data set [2] was below 4.48; in data set [3], 6.67; in data set [5], 6.03. For the same compound, the selectivity ratio in data set [4] is above 156.

Turning to `COc1cc2[nH]c(C)c(-c3cncnc3)c(=O)c2cc1Cl`, the “Ratio EC50” value in data set [1] is recorded as 0.45. In addition, the pEC50 is below 4.48 in data set [2], 5.87 in data set [3] and 5.52 in data set [5]. Also, the selectivity ratio in data set [4] was above 24.4.

Consider `COc1cc2[nH]c(C)c(-c3ccoc3)c(=O)c2cc1Cl`, for which, in data set [1], the “Ratio EC50” value is reported as 0.14. Moreover, the results for the pEC50 in data set [2], in data set [3] and in data set [5] were below 4.46, 8.73 and 7.88, respectively. In addition, the selectivity ratio in data set [4] is above 18600.

On to `COc1cc2[nH]c(C)c(-c3c(C)noc3C)c(=O)c2cc1Cl`, for which, in data set [1], the “Ratio EC50” value was 0.59. Besides, the pEC50 was below 4.50 in data set [2], 6.20 in data set [3] and 5.97 in data set [5]. In addition, in data set [4], the selectivity ratio was above 49.9.

For the compound `COc1cc2[nH]c(C)c(-c3ccc4nonc4c3)c(=O)c2cc1Cl`, the “Ratio EC50” value in data set [1] is reported as 0.04. In addition, the figures for the pEC50 in data set [2], in data set [3] and in data set [5] were below 4.53, 7.09 and 5.71, respectively. Moreover, the selectivity ratio in data set [4] is above 363.

Take `COc1cc2[nH]c(C)c(-c3cc4ccccc4o3)c(=O)c2cc1Cl`: the “Ratio EC50” value in data set [1] was determined as 1.04. Further, the pEC50 in data set [2] was below 4.53; in data set [3] it was 6.86; in data set [5], 6.88. Also, the selectivity ratio in data set [4] is above 214.

`COc1cc2[nH]c(C)c(-c3cc4ccccc4s3)c(=O)c2cc1Cl`: in data set [1], the “Ratio EC50” value is 0.35. In addition, the pEC50 was below 4.55 in data set [2], 7.61 in data set [3] and 7.14 in data set [5]. In data set [4], the selectivity ratio is above 1130.

`COc1cc2[nH]c(C)c(-c3ccc4c(c3)OCCO4)c(=O)c2cc1Cl`: the “Ratio EC50” value in data set [1] is 0.53. Besides, the pEC50 in data set [2] is below 4.55; in data set [3], 7.04; in data set [5], 6.76. Moreover, the selectivity ratio in data set [4] was above 304.

`COc1cc2[nH]c(C)c(-c3cccc4c3oc3ccccc34)c(=O)c2cc1Cl`: in data set [1], the “Ratio EC50” value is 0.68. For the same compound, the pEC50 in data set [2] is below 4.59; in data set [3], 7.47; in data set [5], 7.31. The selectivity ratio in data set [4] was above 765.

Take `COc1cc2[nH]c(C)c(-c3ccc(C=O)cc3)c(=O)c2cc1Cl`: in data set [1], the “Ratio EC50” value was 0.7. Also, the figures for the pEC50 in data set [2], in data set [3] and in data set [5] were below 4.52, below 5.42 and 5.26, respectively.

For `COc1cc2[nH]c(C)c(-c3ccc(C(C)=O)cc3)c(=O)c2cc1Cl`, the “Ratio EC50” value in data set [1] is 0.06. In addition, the pEC50 in data set [2] was below 4.53; in data set [3] it was 7.32; in data set [5], 6.11. In addition, in data set [4], the selectivity ratio is above 605.

As to `COc1cc2[nH]c(C)c(-c3ccc(C(=O)O)cc3)c(=O)c2cc1Cl`, the “Ratio EC50” value in data set [1] is recorded as 0.14. Further, the pEC50 in data set [2] was below 4.54; in data set [3], 7.14; in data set [5], 6.29. The selectivity ratio in data set [4] is above 398.

Consider `COC(=O)c1ccc(-c2c(C)[nH]c3cc(OC)c(Cl)cc3c2=O)cc1`, for which the “Ratio EC50” value in data set [1] is on record as 1.16. In addition, the values for the pEC50 in data set [2], in data set [3] and in data set [5] were below 4.55, 7.59 and 7.65, respectively. Besides, the selectivity ratio in data set [4] is above 1080.

As to `COc1cc2[nH]c(C)c(-c3ccc(N(C)C)cc3)c(=O)c2cc1Cl`, the “Ratio EC50” value in data set [1] worked out at 0.25. In addition, the pEC50 in data set [3] is 7.82; in data set [5] it was 7.22. In data set [4], the selectivity ratio was above 1900.

As for `COc1cc2[nH]c(C)c(-c3ccc(S(=O)(=O)N(C)C)cc3)c(=O)c2cc1Cl`, the “Ratio EC50” value in data set [1] came to 0.08. The figures for the pEC50 in data set [2], in data set [3] and in data set [5] were below 4.61, 6.82 and 5.72, respectively. Moreover, the selectivity ratio in data set [4] was above 162.

With `COc1cc2[nH]c(C)c(-c3ccc(O)cc3)c(=O)c2cc1Cl`, the “Ratio EC50” value in data set [1] turned out to be 0.16. Further, the pEC50 in data set [2] was below 4.50; in data set [3] it was 6.33; in data set [5], 5.54. For the same compound, in data set [4], the selectivity ratio is above 67.8.

On to `COc1cc2[nH]c(C)c(-c3ccccc3CO)c(=O)c2cc1Cl`, for which the “Ratio EC50” value in data set [1] is given as 1.08. The results for the pEC50 in data set [2], in data set [3] and in data set [5] were below 4.52, 6.56 and 6.59, respectively. In addition, the selectivity ratio in data set [4] was above 109.

With `COc1cc2[nH]c(C)c(-c3cccc(CO)c3)c(=O)c2cc1Cl`, the “Ratio EC50” value in data set [1] was 0.15. Moreover, the pEC50 in data set [2] was below 4.52; in data set [3], 6.08; in data set [5], 5.27. Moreover, the selectivity ratio in data set [4] is above 36.6.

On to `COc1cc2[nH]c(C)c(-c3ccc(OCc4ccccc4)cc3)c(=O)c2cc1Cl`, for which the “Ratio EC50” value in data set [1] came to 0.12. For the same compound, the pEC50 in data set [2] was below 4.61; in data set [3], 8.89; in data set [5] it was 7.97. Also, the selectivity ratio in data set [4] is above 19300.

As for `COc1cc2[nH]c(C)c(-c3ccc(COc4ccccc4)cc3)c(=O)c2cc1Cl`, the “Ratio EC50” value in data set [1] amounted to 0.49. In addition, the pEC50 in data set [3] is 9.20; in data set [5], 8.89.

Consider `COc1cc2[nH]c(C)c(-c3c(F)cccc3F)c(=O)c2cc1Cl`, for which the “Ratio EC50” value in data set [1] is recorded as 0.24. In addition, the pEC50 in data set [2] was below 4.53; in data set [3], 8.06; in data set [5] it was 7.45. Moreover, the selectivity ratio in data set [4] was above 3450.

Consider `COc1cc2[nH]c(C)c(-c3cc(C(F)(F)F)cc(C(F)(F)F)c3)c(=O)c2cc1Cl`, for which the “Ratio EC50” value in data set [1] was determined as 0.27. Further, the pEC50 was below 4.64 in data set [2], 6.35 in data set [3] and 5.77 in data set [5]. Also, in data set [4], the selectivity ratio was above 51.1.

Consider `COc1cc2[nH]c(C)c(-c3ccc(C(F)(F)F)cc3F)c(=O)c2cc1Cl`, for which the “Ratio EC50” value in data set [1] worked out at 0.48. The pEC50 in data set [2] is below 4.59; in data set [3] it was 7.98; in data set [5], 7.67. In addition, the selectivity ratio in data set [4] is above 2500.

For `CCOc1cc(-c2c(C)[nH]c3cc(OC)c(Cl)cc3c2=O)ccc1F`, the “Ratio EC50” value in data set [1] stood at 0.13. The figures for the pEC50 in data set [2], in data set [3] and in data set [5] were below 4.56, 7.59 and 6.71, respectively. The selectivity ratio in data set [4] was above 1070.

In the case of `COc1cc2[nH]c(C)c(-c3ccc(OC)c(F)c3F)c(=O)c2cc1Cl`, in data set [1], the “Ratio EC50” value worked out at 2.57. Also, the results for the pEC50 in data set [2], in data set [3] and in data set [5] were below 4.56, 6.39 and 6.80, respectively. For the same compound, the selectivity ratio in data set [4] is above 67.8.

As to `COc1cc2[nH]c(C)c(-c3ccccc3OC(F)(F)F)c(=O)c2cc1Cl`, the “Ratio EC50” value in data set [1] was 4.32. Further, the pEC50 in data set [2] is below 4.52; in data set [3], 5.72; in data set [5], 6.35. Besides, in data set [4], the selectivity ratio was above 15.8.

As for `COc1cc2[nH]c(C)c(-c3ccc(OCc4ccc(F)cc4)cc3)c(=O)c2cc1Cl`, the pEC50 in data set [2] was below 4.63; in data set [3] it was 8.81; in data set [5], 8.29.

Usually logD stands for the decadic logarithm of the distribution of all forms, ionised or not, between an organic phase and buffer at a given pH. The low end stands for lower lipophilicity, the high end for higher lipophilicity. `C(=C\c1ccccc1)/CN1CCN(C(c2ccccc2)c2ccccc2)CC1` [CINNARIZINE] returned a logD in data set [6] of 5.68.

`CC(C)(C)NCC(O)COc1cccc2c1CC(O)C(O)C2` (stereo not given) [NADOLOL] yielded a logD in data set [6] of 0.68.

In data set [6], `Cn1c(=O)c2[nH]cnc2n(C)c1=O.O` [THEOPHYLLINE] came in with a logD of -5.
